Experiments:
Format in all cases: in vivo
[1] = test system: Pharbitis purpurea; assay: Pre-emergence herbicidal action, PHBPU; conditions: dosage 320 g/ha, scored visually after 3 weeks vs untreated controls (100% = plants have died)
In short: (§1)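 Application took place on the soil surface immediately after sowing into sandy loam, using aqueous WP or EC preparations with 0.2% wetting agent. Visual percent scoring followed 3 weeks later, untreated pots serving as reference.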

[2] = test system: Avena fatua; assay: Post-emergence herbicidal action, AVEFA; set-up: key: % herbicidal action vs untreated; 100 = plants died, 0 = like control
In short: (§2)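 Sandy loam, greenhouse; one-leaf stage (2–3 wk after sowing); foliar spray of WP or EC, 600–800 l/ha water + 0.2% wetter; visual rating at ~3 wk vs untreated, % effect.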

[3] = test system: Stellaria media; assay: Pre-emergence herbicidal action, STEME; set-up: key to Herbicidal action against STEME: % activity: 100 = plants have died, 0 = like control plants; conditions: for herbicidal activity STEME: scored visually after 3 weeks vs untreated controls (100% = plants have died); for Herbicidal action against STEME: comparative experiment, 20 g of a.i./ha
In short: as §1

[4] = test system: Hordeum murinum; assay: Pre-emergence herbicidal action, HORMU; conditions: dosage 320 g/ha; for herbicidal activity HORMU: scored visually after 3 weeks vs untreated controls (100% = plants have died)
Description: (§3) 1. Pre-Emergence Herbicidal Action Against Harmful Plants Seeds of monocotyledonous and dicotyledonous weed plants and crop plants are laid out in sandy loam soil in wood-fiber pots and covered with soil. The compounds of the invention, formulated in the form of wettable powders (WP) or as emulsion concentrates (EC), are then applied to the surface of the covering soil in the form of an aqueous suspension or emulsion at a water application rate equating to 600 to 800 l/ha, with addition of 0.2% wetting agent. After the treatment, the pots are placed in a greenhouse and kept under good growth conditions for the trial plants. The damage to the test plants is scored visually after a test period of 3 weeks by comparison with untreated controls (herbicidal activity in percent (%): 100% activity=the plants have died, 0% activity=like control plants). […] The tables below illustrate, in an exemplary manner, the […] herbicidal action of the compounds according to the invention, the herbicidal activity being stated in percent. [table] In the experiments that follow, herbicidal action of numerous inventive compounds and the known compounds that are structurally closest from D1 (WO 2012/028579 A1) and D2 (WO 2018/202535 A1) were compared under the above-specified conditions by the pre-emergence and post-emergence method. The example numbers given in the tables relate to the compounds disclosed in the respective documents. In addition to the compounds disclosed in D1 and D2, the following compounds V-1 to V-14 that are encompassed by D1 or D2 but are not compounds specified therein were used in the comparative experiments: • V-1: 2-(methylsulfanyl)-3-(methylsulfinyl)-N-(1-methyl-1H-tetrazol-5-yl)-4-(trifluoromethyl)benzamide • V-2: 2-(methylsulfanyl)-3-(methylsulfonyl)-N-(1-methyl-1H-tetrazol-5-yl)-4-(trifluoromethyl)benzamide • V-3: 2,3-bis(ethylsulfanyl)-N-(1-methyl-1H-tetrazol-5-yl)-4-(trifluoromethyl)benzamide • V-4: 2-chloro-3-(ethylsulfanyl)-N-(1-methyl-1H-tetrazol-5-yl)-4-(trifluoromethyl)benzamide • V-5: 2-chloro-4-iodo-3-(methylsulfanyl)-N-(1-methyl-1H-tetrazol-5-yl)benzamide • V-6: 2-chloro-4-iodo-3-(methylsulfinyl)-N-(1-methyl-1H-tetrazol-5-yl)benzamide • V-7: 2-chloro-4-iodo-3-(methylsulfonyl)-N-(1-methyl-1H-tetrazol-5-yl)benzamide • V-8: 2-bromo-3-(methylsulfanyl)-N-(1-methyl-1H-tetrazol-5-yl)-4-(trifluoromethyl)benzamide • V-9: 2-bromo-3-(methylsulfinyl)-N-(1-methyl-1H-tetrazol-5-yl)-4-(trifluoromethyl)benzamide • V-10: 2-bromo-3-(methylsulfonyl)-N-(1-methyl-1H-tetrazol-5-yl)-4-(trifluoromethyl)benzamide • V-11: 2-bromo-3-(ethylsulfanyl)-N-(1-methyl-1H-tetrazol-5-yl)-4-(trifluoromethyl)benzamide • V-12: 2-bromo-3-(ethylsulfinyl)-N-(1-methyl-1H-tetrazol-5-yl)-4-(trifluoromethyl)benzamide • V-13: 2-bromo-3-(ethylsulfonyl)-N-(1-methyl-1-1H-tetrazol-5-yl)-4-(trifluoromethyl)benzamide • V-14: 2-cyclopropyl-3-(ethylsulfanyl)-N-(1-methyl-1H-tetrazol-5-yl)-4-(trifluoromethyl)benzamide Herbicidal Pre-Emergence Action: […]

[5] = test system: Abutilon theophrasti; assay: Post-emergence herbicidal action, ABUTH; set-up: key: % herbicidal action vs untreated; 100 = plants died, 0 = like control
In short: as §2

[6] = test system: Cyperus esculentus; assay: Post-emergence herbicidal action, CYPES; set-up: key: % herbicidal action vs untreated; 100 = plants died, 0 = like control
In short: as §2

[7] = test system: Lolium multiflorum; assay: Pre-emergence herbicidal action, LOLMU; conditions: dosage 320 g/ha, scored visually after 3 weeks vs untreated controls (100% = plants have died)
Description: as §3

Structure (SMILES): CC[S+]([O-])Cc1c(C(F)(F)F)ccc(C(=O)Nc2nnnn2C)c1Cl (racemic) [Example 1-300]
- herbicidal activity PHBPU [1]: 100%
- herbicidal action AVEFA ([2]; post-emergence, dosage 80 g/ha): 100%
- herbicidal activity STEME ([3]; dosage 320 g/ha): 100%
- herbicidal activity HORMU [4]: 100%
- herbicidal action ABUTH ([5]; post-emergence, dosage 80 g/ha): 90%

Structure (SMILES): COCC[S+]([O-])Cc1c(C(F)(F)F)ccc(C(=O)Nc2nnnn2C)c1Cl (racemic) [Example 1-306]
- herbicidal activity PHBPU [1]: 90%
- herbicidal action AVEFA ([2]; Dosage 80 g/ha): 80
- herbicidal activity STEME ([3]; dosage 320 g/ha): 100%
- herbicidal activity HORMU [4]: 90%
- herbicidal action ABUTH ([5]; Dosage 80 g/ha): 90

Structure (SMILES): Cn1nnnc1NC(=O)c1ccc(C(F)(F)F)c(C[S+]([O-])CC(F)(F)F)c1Cl (racemic) [Example 1-312]
- herbicidal activity PHBPU [1]: 90%
- herbicidal action AVEFA ([2]; post-emergence, dosage 80 g/ha): 90%
- herbicidal activity STEME ([3]; dosage 320 g/ha): 100%
- herbicidal activity HORMU [4]: 100%
- herbicidal action ABUTH ([5]; post-emergence, dosage 80 g/ha): 100%

Structure (SMILES): Cn1nnnc1NC(=O)c1ccc(I)c(C[S+](C)[O-])c1Cl (racemic) [Example 1-363]
- herbicidal activity PHBPU [1]: 100%
- herbicidal action AVEFA ([2]; post-emergence, dosage 80 g/ha): 100%
- Herbicidal action against STEME [3]: 100
- herbicidal activity STEME ([3]; dosage 320 g/ha): 100%
- herbicidal activity HORMU [4]: 100%
- herbicidal action ABUTH ([5]; post-emergence, dosage 80 g/ha): 100%

Structure (SMILES): CSc1c(C(=O)Nc2nnnn2C)ccc(C(F)F)c1C[S+](C)[O-] (centres unmarked) [Example 1-171]
- herbicidal activity PHBPU [1]: 90%
- herbicidal activity STEME ([3]; dosage 320 g/ha): 100%
- herbicidal activity HORMU [4]: 80%
- herbicidal action ABUTH ([5]; Dosage 80 g/ha): 100

Structure (SMILES): Cn1nnnc1NC(=O)c1ccc(C(F)(F)F)c(CS(=O)(=O)CC2CC2)c1Cl [Example 1-316]
- herbicidal activity PHBPU [1]: 90%
- herbicidal action AVEFA ([2]; Dosage 80 g/ha): 100
- herbicidal activity STEME ([3]; dosage 320 g/ha): 100%
- herbicidal activity HORMU [4]: 90%
- herbicidal action ABUTH ([5]; Dosage 80 g/ha): 100

Structure (SMILES): Cn1nnnc1NC(=O)c1ccc(I)c(CS(C)(=O)=O)c1Cl [Example 1-364]
- herbicidal activity PHBPU [1]: 90%
- Herbicidal action against STEME [3]: 90
- herbicidal activity STEME ([3]; dosage 320 g/ha): 100%
- herbicidal activity HORMU [4]: 90%
- herbicidal action ABUTH ([5]; Dosage 80 g/ha): 100

Structure (SMILES): Cn1nnnc1NC(=O)c1ccc(C(F)(F)F)c(CS(C)(=O)=O)c1C(F)(F)C(F)(F)F [Example 1-552]
- herbicidal activity PHBPU [1]: 90%
- herbicidal action AVEFA ([2]; Dosage 80 g/ha): 90
- herbicidal activity STEME ([3]; dosage 320 g/ha): 100%
- herbicidal activity HORMU [4]: 80%
- herbicidal action ABUTH ([5]; Dosage 80 g/ha): 90

Structure (SMILES): CCn1nnnc1NC(=O)c1ccc(C(F)(F)F)c(C[S+](C)[O-])c1SC (centres unmarked) [Example 2-162]
- herbicidal activity PHBPU [1]: 90%
- herbicidal action AVEFA ([2]; Dosage 80 g/ha): 100
- herbicidal activity STEME ([3]; dosage 320 g/ha): 100%
- herbicidal activity HORMU [4]: 90%
- herbicidal action ABUTH ([5]; Dosage 80 g/ha): 100

Structure (SMILES): CCn1nnnc1NC(=O)c1ccc(C(F)F)c(CSC)c1SC [Example 2-170]
- herbicidal activity STEME ([3]; dosage 320 g/ha): 100%
- herbicidal activity HORMU [4]: 80%
- herbicidal action ABUTH ([5]; Dosage 80 g/ha): 100

Structure (SMILES): CCn1nnnc1NC(=O)c1ccc(C(F)(F)F)c(CSC)c1Cl [Example 2-296]
- herbicidal activity PHBPU [1]: 90%
- herbicidal action AVEFA ([2]; post-emergence, dosage 80 g/ha): 100%
- herbicidal activity STEME ([3]; dosage 320 g/ha): 100%
- herbicidal action CYPES ([6]; post-emergence, dosage 80 g/ha): 80%
- herbicidal action ABUTH ([5]; post-emergence, dosage 80 g/ha): 100%
- herbicidal activity LOLMU [7]: 100%

Structure (SMILES): CCSCc1c(C(F)(F)F)ccc(C(=O)Nc2nnnn2CC)c1Cl [Example 2-299]
- herbicidal activity PHBPU [1]: 90%
- herbicidal action AVEFA ([2]; post-emergence, dosage 80 g/ha): 100%
- herbicidal activity STEME ([3]; dosage 320 g/ha): 100%
- herbicidal action CYPES ([6]; post-emergence, dosage 80 g/ha): 90%
- herbicidal action ABUTH ([5]; post-emergence, dosage 80 g/ha): 100%
- herbicidal activity LOLMU [7]: 100%

Structure (SMILES): CCn1nnnc1NC(=O)c1ccc(C(F)(F)F)c(C[S+]([O-])CC)c1Cl (centres unmarked) [Example 2-300]
- herbicidal activity PHBPU [1]: 100%
- herbicidal action AVEFA ([2]; post-emergence, dosage 80 g/ha): 100%
- herbicidal activity STEME ([3]; dosage 320 g/ha): 100%
- herbicidal activity HORMU [4]: 100%
- herbicidal action ABUTH ([5]; post-emergence, dosage 80 g/ha): 90%

Structure (SMILES): CCn1nnnc1NC(=O)c1ccc(C(F)(F)F)c(CSCC(F)(F)F)c1Cl [Example 2-311]
- herbicidal action AVEFA ([2]; Dosage 80 g/ha): 90
- herbicidal activity STEME ([3]; dosage 320 g/ha): 100%
- herbicidal activity HORMU [4]: 80%
- herbicidal action ABUTH ([5]; Dosage 80 g/ha): 90

Structure (SMILES): CCn1nnnc1NC(=O)c1ccc(C(F)(F)F)c(C[S+]([O-])CC2CC2)c1Cl (centres unmarked) [Example 2-315]
- herbicidal activity PHBPU [1]: 90%
- herbicidal action AVEFA ([2]; Dosage 80 g/ha): 90
- herbicidal activity STEME ([3]; dosage 320 g/ha): 100%
- herbicidal activity HORMU [4]: 100%
- herbicidal action ABUTH ([5]; Dosage 80 g/ha): 100

Structure (SMILES): CCn1nnnc1NC(=O)c1ccc(C(F)F)c(CSC)c1Cl [Example 2-320]
- herbicidal activity PHBPU [1]: 80%
- herbicidal action AVEFA ([2]; Dosage 80 g/ha): 90
- herbicidal activity STEME ([3]; dosage 320 g/ha): 100%
- herbicidal action CYPES ([6]; Dosage 80 g/ha): 80
- herbicidal action ABUTH ([5]; Dosage 80 g/ha): 100
- herbicidal activity LOLMU [7]: 90%

Structure (SMILES): CCSCc1c(C(F)F)ccc(C(=O)Nc2nnnn2CC)c1Cl [Example 2-323]
- herbicidal activity PHBPU [1]: 90%
- herbicidal action AVEFA ([2]; post-emergence, dosage 80 g/ha): 100%
- herbicidal activity STEME ([3]; dosage 320 g/ha): 100%
- herbicidal action CYPES ([6]; post-emergence, dosage 80 g/ha): 80%
- herbicidal action ABUTH ([5]; post-emergence, dosage 80 g/ha): 100%
- herbicidal activity LOLMU [7]: 100%

Structure (SMILES): CCn1nnnc1NC(=O)c1ccc(C(F)(F)F)c(CS(=O)(=O)CC)c1Br [Example 2-385]
- herbicidal activity PHBPU [1]: 80%
- herbicidal action AVEFA ([2]; post-emergence, dosage 80 g/ha): 90%
- herbicidal activity STEME ([3]; dosage 320 g/ha): 100%
- herbicidal action CYPES ([6]; post-emergence, dosage 80 g/ha): 90%
- herbicidal action ABUTH ([5]; post-emergence, dosage 80 g/ha): 100%
- herbicidal activity LOLMU [7]: 100%

Structure (SMILES): CCCn1nnnc1NC(=O)c1ccc(C(F)F)c(C[S+](C)[O-])c1SC (centres unmarked) [Example 3-171]
- herbicidal activity PHBPU [1]: 90%
- herbicidal activity STEME ([3]; dosage 320 g/ha): 100%
- herbicidal activity HORMU [4]: 90%
- herbicidal action ABUTH ([5]; Dosage 80 g/ha): 100

Structure (SMILES): CCCn1nnnc1NC(=O)c1ccc(C(F)F)c(CS(C)(=O)=O)c1SC [Example 3-172]
- herbicidal activity PHBPU [1]: 80%
- herbicidal activity STEME ([3]; dosage 320 g/ha): 100%
- herbicidal activity HORMU [4]: 80%
- herbicidal action ABUTH ([5]; Dosage 80 g/ha): 100

Structure (SMILES): CCCn1nnnc1NC(=O)c1ccc(I)c(C[S+](C)[O-])c1Cl (centres unmarked) [Example 3-363]
- herbicidal action AVEFA ([2]; Dosage 80 g/ha): 80
- herbicidal action STEME ([3]; dosage 320 g/ha): 100%
- herbicidal action HORMU [4]: 100%
- herbicidal action ABUTH ([5]; Dosage 80 g/ha): 90

From patent publication US12492173B2, “Herbicidal substituted N-tetrazolyl aryl carboxamides” (Bayer Aktiengesellschaft, priority 2019, dated 2025)
